Measurements reported in ChEMBL document CHEMBL5385846, “Discovery and development of palmatine analogues as anti-NASH agents by activating farnesoid X receptor (FXR)” (Eur J Med Chem, 2023).
The source made the active and inactive calls. The rule behind the calls is not given here.

Legend:
[1] = system: LX-2; test: Antifibrotic activity in TGF-beta1 induced human LX2 cells assessed as downregulation of COL1A1 mRNA expression incubated for 24 hrs by qRT-PCR analysis; type: functional, cell-based
[2] = Metabolic stability in human liver microsomes assessed as compound remaining at 1 micromol/L measured upto 60 mins in presence of NADPH by LC-MS/MS analysis; type: ADME, Microsome; settings: dose 1 µmol/L, read-out: Stability
[3] = system: Mus musculus; test: Hepatoprotective activity in CDAHFD induced C57BL/6N mouse liver injury model assessed as increase in glucose level at 200 mg/kg,po qd administration for 4 weeks; type: functional, organism-based
[4] = system: Mus musculus; test: Antifibrotic activity in CDAHFD induced non-alcoholic steatohepatitis C57BL/6N mouse model assessed as decrease in collagen area at 200 mg/kg,po qd administration for 4 weeks by Masson's trichrome staining based analysis; type: functional, organism-based
[5] = Metabolic stability in CD-1 mouse liver microsomes assessed as compound remaining at 1 micromol/L measured upto 60 mins in presence of NADPH by LC-MS/MS analysis; type: ADME, Microsome; settings: 1 h, 1 µM, dose 1 µmol/L
[6] = system: Mus musculus; test: Anti-inflammatory activity in CDAHFD induced C57BL/6N mouse liver injury model assessed as downregulation of TNF-alpha mRNA expression in liver at 200 mg/kg,po qd administration for 4 weeks by qRT-PCR analysis; type: functional, organism-based
[7] = system: Mus musculus; test: Antifibrotic activity in CDAHFD induced non-alcoholic steatohepatitis C57BL/6N mouse model assessed as downregulation of TGF-beta1 protein expression at 200 mg/kg,po qd administration for 4 weeks by Western blotting analysis; type: functional, organism-based
[8] = system: Mus musculus; test: Hepatoprotective activity in CDAHFD induced C57BL/6N mouse liver injury model assessed as decrease in total cholesterol level at 200 mg/kg,po qd administration for 4 weeks; type: functional, organism-based
[9] = system: Mus musculus; test: Anti-inflammatory activity in CDAHFD induced C57BL/6N mouse liver injury model assessed as downregulation of MCP1 mRNA expression in liver at 200 mg/kg,po qd administration for 4 weeks by qRT-PCR analysis; type: functional, organism-based
[10] = system: THP-1; test: Anti-inflammatory activity in PMA differentiated human THP-1 cells assessed as downregulation of caspase-1 protein expression at 10 micromol/L incubated for 4 hrs followed by LPS and Nigericin addition for 3.5 hrs by Western blotting analysis; type: functional, cell-based; settings: dose 10.0 µmol/L, time 7.5 hrs
[11] = Acute toxicity in Kunming mouse assessed as lethal dose at po administration; type: organism-based; settings: in vivo
[12] = system: Mus musculus; test: Antifibrotic activity in CDAHFD induced non-alcoholic steatohepatitis C57BL/6N mouse model assessed as downregulation of TGF-beta1 mRNA expression at 200 mg/kg,po qd administration for 4 weeks by qRT-PCR analysis; type: functional, organism-based
[13] = system: Mus musculus; test: Anti-inflammatory activity in CDAHFD induced C57BL/6N mouse liver injury model assessed as downregulation of IL-6 mRNA expression in liver at 200 mg/kg,po qd administration for 4 weeks by qRT-PCR analysis; type: functional, organism-based
[14] = system: Mus musculus; test: Hepatoprotective activity in CDAHFD induced C57BL/6N mouse liver injury model assessed as decrease in total bilirubin level at 200 mg/kg,po qd administration for 4 weeks; type: functional, organism-based
[15] = system: Mus musculus; test: Hepatoprotective activity in CDAHFD induced C57BL/6N mouse liver injury model assessed as reduction in free cholesterol level at 200 mg/kg,po qd administration for 4 weeks; type: functional, organism-based
[16] = system: Mus musculus; test: Hepatoprotective activity in CDAHFD induced C57BL/6N mouse liver injury model assessed as inhibition of lipid peroxidation at 200 mg/kg,po qd administration for 4 weeks; type: functional, organism-based
[17] = system: Rattus norvegicus; test: Hepatoprotective activity in bile duct ligation induced Sprague-Dawley rat liver injury model assessed as decrease in ALP level at 200 mg/kg,po qd administration for 14 days; type: functional, organism-based; settings: time 14.0 day
[18] = Half life in CD-1 mouse liver microsomes at 1 micromol/L measured upto 60 mins in presence of NADPH by LC-MS/MS analysis; type: ADME, Microsome; settings: 1 h, 1 µM, dose 1 µmol/L
[19] = system: Mus musculus; test: Hepatoprotective activity in CDAHFD induced C57BL/6N mouse liver injury model assessed as reduction in hepatic steatosis at 200 mg/kg,po qd administration for 4 weeks by hematoxylin and eosin staining based assay; type: functional, organism-based
[20] = system: Mus musculus; test: Hepatoprotective activity in CDAHFD induced C57BL/6N mouse liver injury model assessed as decrease in LDL level at 200 mg/kg,po qd administration for 4 weeks; type: functional, organism-based
[21] = Cytotoxicity against human LX2 cells assessed as inhibition of cell growth; type: toxicity, cell-based, LX-2
[22] = system: Mus musculus; test: Anti-inflammatory activity in CDAHFD induced C57BL/6N mouse liver injury model assessed as downregulation of IL-1beta mRNA expression in liver at 200 mg/kg,po qd administration for 4 weeks by qRT-PCR analysis; type: functional, organism-based
[23] = system: LX-2; test: Antifibrotic activity in TGF-beta1 induced human LX2 cells assessed as downregulation of TGF-beta1 mRNA expression incubated for 24 hrs by qRT-PCR analysis; type: functional, cell-based
[24] = Half life in Sprague-Dawley rat liver microsomes at 1 micromol/L measured upto 60 mins in presence of NADPH by LC-MS/MS analysis; type: ADME, Microsome; settings: dose 1 µmol/L
[25] = system: Mus musculus; test: Anti-inflammatory activity in CDAHFD induced C57BL/6N mouse liver injury model assessed as reduction in inflammatory cell infiltration in liver at 200 mg/kg,po qd administration for 4 weeks by hematoxylin and eosin staining based assay; type: functional, organism-based
[26] = system: Mus musculus; test: Antifibrotic activity in CDAHFD induced non-alcoholic steatohepatitis C57BL/6N mouse model assessed as downregulation of TIMP1 mRNA expression at 200 mg/kg,po qd administration for 4 weeks by qRT-PCR analysis; type: functional, organism-based
[27] = system: Rattus norvegicus; test: Antifibrotic activity in bile duct ligation induced Sprague-Dawley rat liver fibrosis model assessed as downregulation of COL1A1 mRNA expression at 200 mg/kg,po qd administration for 14 days by qRT-PCR analysis; type: functional, organism-based; settings: time 14.0 day
[28] = system: Rattus norvegicus; test: Antifibrotic activity in bile duct ligation induced Sprague-Dawley rat liver fibrosis model assessed as upregulation of FXR protein expression at 200 mg/kg,po qd administration for 14 days by Western blotting analysis; type: functional, organism-based; settings: time 14.0 day
[29] = Metabolic stability in Sprague-Dawley rat liver microsomes assessed as microsomal intrinsic clearance at 1 micromol/L measured upto 60 mins in presence of NADPH by LC-MS/MS analysis; type: ADME, Microsome; settings: dose 1 µmol/L, read-out: CLH
[30] = system: Rattus norvegicus; test: Hepatoprotective activity in bile duct ligation induced Sprague-Dawley rat liver injury model assessed as decrease in ALT level at 200 mg/kg,po qd administration for 14 days; type: functional, organism-based; settings: time 14.0 day
[31] = system: Rattus norvegicus; test: Antifibrotic activity in bile duct ligation induced Sprague-Dawley rat liver fibrosis model assessed as downregulation of NTCP protein expression at 200 mg/kg,po qd administration for 14 days by Western blotting analysis; type: functional, organism-based; settings: time 14.0 day
[32] = Metabolic stability in Sprague-Dawley rat liver microsomes assessed as compound remaining at 1 micromol/L measured upto 60 mins in presence of NADPH by LC-MS/MS analysis; type: ADME, Microsome; settings: dose 1 µmol/L, read-out: Stability
[33] = system: Mus musculus; test: Antifibrotic activity in CDAHFD induced non-alcoholic steatohepatitis C57BL/6N mouse model assessed as downregulation of COL1A1 protein expression at 200 mg/kg,po qd administration for 4 weeks by Western blotting analysis; type: functional, organism-based

Question: For `COc1cc2c(cc1OC)-c1cc3ccc(OC)c(OCc4cccc(C)c4)c3c[n+]1CC2.[Br-]`, which Activity [1] is on record?
Answer: Dose-Dependent Effect

Question: And the remaining at 1 h, 1 µM [2]?
Answer: 44.1%

Question: What about the Activity [3] of the same compound?
Answer: Active

Question: What about the Activity [4] of the same compound?
Answer: Active

Question: And the Stability [5]?
Answer: 39%

Question: And the Activity [6]?
Answer: Active

Question: What about the Activity [7] of the same compound?
Answer: Active

Question: And the Activity [8]?
Answer: inactive

Question: What about the Activity [9] of the same compound?
Answer: Active

Question: And the Activity [10]?
Answer: Active

Question: What about the LD50 [11] of the same compound?
Answer: > 1000 mg/kg

Question: And the Activity [12]?
Answer: Active

Question: And the Activity [13]?
Answer: Active

Question: What about the Activity [14] of the same compound?
Answer: Active

Question: And the Activity [15]?
Answer: Active

Question: And the Activity [16]?
Answer: Active

Question: What about the Activity [17] of the same compound?
Answer: Active

Question: What about the t1/2 [18] of the same compound?
Answer: 7.4 min

Question: What about the Activity [19] of the same compound?
Answer: Active

Question: And the Activity [20]?
Answer: Active

Question: What about the CC50 [21] of the same compound?
Answer: 70.4 µM

Question: What about the Activity [22] of the same compound?
Answer: Active

Question: What about the Activity [23] of the same compound?
Answer: Dose-Dependent Effect

Question: What about the half-life at 1 µM [24] of the same compound?
Answer: 7.4 min

Question: What about the Activity [25] of the same compound?
Answer: Active

Question: What about the Activity [26] of the same compound?
Answer: Active

Question: And the Activity [27]?
Answer: Active

Question: What about the Activity [28] of the same compound?
Answer: Active

Question: What about the microsomal CLint at 1 µM [29] of the same compound?
Answer: 188 µL/min/mg

Question: And the Activity [30]?
Answer: Active

Question: And the Activity [31]?
Answer: Active

Question: What about the remaining at 1 h, 1 µM [32] of the same compound?
Answer: 0.4%

Question: And the Activity [33]?
Answer: Active
